The results in this text go back to patent US20070015803A1, “Methods for treating diseases through interruption of protein maturation, compounds that inhibit the function of molecular chaperones such as protein disulfide isomerases or interfere with glycosylation, pharmaceutical compositions comprising them, and screening methods for identifying therapeutic …” (Romark Laboratories L.C., priority 2005, published 2007).

The subject of experiment [1] is IL-1β, IL-6 and TNF-alpha. In words: Cytokine suppressing ability in cell culture. It is filed as cell-based. Particulars: in particular IL-1β.
The test system of experiment [2] is para-influenza virus, sendai virus, influenza A virus, and/or rhinovirus. In words: In vitro or cell culture activity against viruses. Type of experiment: cell-based. An excerpt:
(§1) The following compounds numbered 1-13 in the table below have been synthesized and tested in vitro or in cell culture against Neospora caninum (a protozoan), para-influenza virus, sendai virus, influenza A virus, and/or rhinovirus. In addition, applicant notes that compounds 12 and 13 have shown good activity against viruses and Neospora caninum.

The subject of experiment [3] is Neospora caninum. In words: In vitro or cell culture activity against Neospora caninum (compounds 1-13). Type of experiment: cell-based.
Source text: as §1

The test system of another experiment is chronic hepatitis B. In words: Adults with chronic hepatitis B, serum virus DNA. Type of experiment: in vivo, human. Particulars: 500 mg tablet twice daily for 24 weeks. An excerpt:
(§2) Cell culture studies of the mechanism of action by which tizoxanide suppresses rotavirus infection have been carried out. […] Studies have shown that tizoxanide binds to PDI-4 of Giardia intestinalis (an extra-cellular protozoan) and that tizoxanide is effective in vitro against Giardia intestinalis. • b. Studies have shown that tizoxanide binds to PDI isolated from Neospora caninum (intracellular protozoan) and is effective in vitro against this organism. • c. […] Studies in humans have shown that adults with chronic hepatitis B or with chronic hepatitis C can be effectively treated by administering nitazoxanide 500 mg (in tablet form) twice daily for 24 weeks with the patients having undetectable virus DNA or RNA in their serum at the end of treatment.

The nature of experiment [4]: Human subject with elevated liver enzymes due to autoimmune hepatitis. Type of experiment: in vivo. As to conditions: 500 mg twice daily orally, 10-day course.
Source text: as §2

In the next experiment the test system is chronic hepatitis C. In words: Adults with chronic hepatitis C, serum virus RNA. As to conditions: 500 mg tablet twice daily for 24 weeks. Type of experiment: in vivo, human.
Source text: as §2

Experiment [5] deals with rotavirus. Kind of experiment: Children with severe rotavirus disease, versus placebo. Type of experiment: in vivo, human. As to conditions: 7.5 mg/kg twice daily oral, compared to placebo.
The subject of experiment [6] is human colon cancer cell lines. In words: Replication of human colon cancer cell lines and other cell lines. Type of experiment: cell-based. As to conditions: human colon cancer cell lines and a variety of other cell lines.
Source text: as §2

The subject of experiment [7] is rotavirus. In words: Cell culture studies of the mechanism by which tizoxanide suppresses rotavirus infection. It is filed as cell-based.
Source text: as §2

Experiment [8] concerns the target T1, PDI isolated from Neospora caninum (Neospora caninum, UniProt F0VAI6).
T1 construct: PDI isolated from Neospora caninum; from tissue; host or cells: Neospora caninum (parasite material)
In words: Binding to PDI isolated from Neospora caninum.
Source text: as §2

The next experiment has as its system Giardia intestinalis. In words: In vitro efficacy against Giardia intestinalis. It is filed as cell-based. Particulars: extra-cellular protozoan.
Source text: as §2

For experiment [9], the system named is Neospora caninum. In words: In vitro efficacy against Neospora caninum (tizoxanide). Particulars: intracellular protozoan. It is filed as cell-based.
Source text: as §2

In experiment [10] the test system is PDI-4 of Giardia intestinalis. In words: Binding to PDI-4 of Giardia intestinalis.
Source text: as §2

For experiment [11], the system named is pro-inflammatory cytokines: IL-2, IL-4, IL-5, IL-6, IL-8, IL-10, IL-12 and TNF-alpha. In words: Secretion of pro-inflammatory cytokines. Type of experiment: cell-based.
Source text: as §2

SMILES strings stand for the structures.

T1 sequence (F0VAI6 entry or part of it): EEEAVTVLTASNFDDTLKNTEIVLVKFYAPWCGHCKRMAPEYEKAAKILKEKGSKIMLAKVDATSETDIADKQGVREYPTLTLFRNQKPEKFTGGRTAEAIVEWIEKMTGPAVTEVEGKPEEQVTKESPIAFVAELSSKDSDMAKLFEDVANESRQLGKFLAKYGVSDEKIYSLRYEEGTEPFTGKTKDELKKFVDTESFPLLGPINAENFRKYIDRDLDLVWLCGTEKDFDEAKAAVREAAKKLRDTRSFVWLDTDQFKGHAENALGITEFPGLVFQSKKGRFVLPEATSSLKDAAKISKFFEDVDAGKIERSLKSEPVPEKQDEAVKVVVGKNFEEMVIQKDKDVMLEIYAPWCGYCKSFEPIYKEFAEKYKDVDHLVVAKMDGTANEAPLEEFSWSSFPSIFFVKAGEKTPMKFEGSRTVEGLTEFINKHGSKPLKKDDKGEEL

Consider `CC(=O)Oc1c(C)cccc1C(=O)Nc1ncc(Br)s1` [Compound 3], for which the suppression of cytokines result in experiment [1] is reported as “showed activity in suppressing cytokines”.
Regarding `O=C(Nc1cccc(Cl)c1)c1ccccc1O` [Compound 13, N-(3-chlorophenyl)-2-hy-droxybenzamide], the activity against viruses entry in experiment [2] is given as “good activity”. Also, in the experiment with Neospora caninum [3], the “activity against Neospora caninum” value is “good activity”.
Consider `O=C(Nc1cccc(F)c1)c1ccccc1O` [Compound 12, N-(3-fluorophenyl)-2-hy-droxybenzamide], for which, in experiment [2], the activity against viruses result is on record as “good activity”. Moreover, in the experiment on Neospora caninum [3], the “activity against Neospora caninum” value is reported as “good activity”.
As to `CC(=O)Oc1ccccc1C(=O)Nc1ncc([N+](=O)[O-])s1` [nitazoxanide], the “virus DNA in serum at end of treatment” value with chronic hepatitis B is recorded as “undetectable”. For the same compound, the liver transaminases result in experiment [4] is given as “reduced liver transaminases to normal levels”. In addition, the “virus RNA in serum at end of treatment” value with chronic hepatitis C was “undetectable”. Also, the duration of illness entry in the experiment on rotavirus [5] was “significantly reduces the duration of illness”. For the same compound, the “replication of cell lines” value in [6] is listed as “inhibits the replication”.
As to `O=C(Nc1ncc([N+](=O)[O-])s1)c1ccccc1O` [tizoxanide], in the experiment on rotavirus [7], the “VP7 maturation to a stage allowing glycosylation” value is reported as “prevented VP7 from reaching a stage of maturation that allowed it to be glycosylated”, the “effect on viral transcription” value is given as “did not affect” and the “maturation of virus protein” value was “prevent maturation of virus protein”. Besides, the “effect on synthesis and/or maturation of VP7” value in the experiment on rotavirus [7] (single protein identified as VP7) was “selectively affects”. For the same compound, the “binding to PDI” value in experiment [8] is on record as “binds”. Besides, the efficacy in vitro result in the experiment on Giardia intestinalis was “effective”. In addition, the efficacy in vitro result in the experiment on Neospora caninum [9] was “effective”. Further, in experiment [10], the “binding to PDI-4” value is “binds”. In [11], the “secretion of pro-inflammatory cytokines” value is “inhibits secretion”.
